According to the NIST ThermoML archive (doi:10.1016/j.jct.2006.07.021):

Assay: xn = mol fraction of the nth substance listed
Conditions: 101 kPa, Liquid, Pycnometric method

NC=O [formamide] + CCO
mass density [kg/m3]
Conditions	293.15 K	298.15 K	303.15 K	308.15 K	313.15 K	318.15 K
x1 = 0.0698	807.47	803.3	799.14	794.94	790.75	786.59
x1 = 0.1412	826.72	822.6	818.49	814.41	810.28	806.17
x1 = 0.2032	844.13	840.06	835.99	831.94	827.87	823.84
x1 = 0.268	862.91	858.91	854.91	850.86	846.85	842.82
x1 = 0.3234	879.65	875.69	871.68	867.71	863.74	859.75
x1 = 0.3874	899.52	895.58	891.65	887.7	883.75	879.8
x1 = 0.4365	915.29	911.35	907.45	903.54	899.61	895.7
x1 = 0.4962	935.06	931.19	927.32	923.4	919.52	915.62
x1 = 0.5423	950.83	946.93	943.06	939.2	935.3	931.42
x1 = 0.5958	969.63	965.8	961.95	958.11	954.29	950.42
x1 = 0.6456	987.65	983.82	979.98	976.18	972.35	968.54
x1 = 0.708	1010.93	1007.05	1003.21	999.36	995.49	991.62
x1 = 0.7748	1036.9	1033.01	1029.13	1025.26	1021.35	1017.44
x1 = 0.8532	1068.57	1064.68	1060.75	1056.82	1052.93	1049.03
x1 = 0.9282	1100.66	1096.71	1092.76	1088.83	1084.87	1080.95
x1 = 1	1133	1129	1125	1121	1117	1113

OCCO [1,2-ethanediol] + NC=O
x2 = 0
Conditions	mass density [kg/m3]
293.15 K	1113.57
303.15 K	1106.51
313.15 K	1099.45

NC=O [formamide] + CC(O)CO
mass density [kg/m3]
Conditions	293.15 K	298.15 K	303.15 K	308.15 K	313.15 K	318.15 K
x1 = 0.0567	1038.29	1034.56	1030.82	1027.12	1023.41	1019.67
x1 = 0.1191	1040.52	1036.78	1033.03	1029.25	1025.52	1021.77
x1 = 0.1881	1043.47	1039.69	1035.91	1032.11	1028.33	1024.51
x1 = 0.2649	1047.35	1043.5	1039.65	1035.85	1032.01	1028.19
x1 = 0.3409	1051.67	1047.79	1043.96	1040.09	1036.22	1032.37
x1 = 0.3904	1054.79	1050.91	1047.02	1043.15	1039.28	1035.44
x1 = 0.4478	1058.92	1055.02	1051.08	1047.15	1043.24	1039.31
x1 = 0.4936	1062.42	1058.49	1054.56	1050.68	1046.76	1042.86
x1 = 0.5578	1068.01	1064.07	1060.1	1056.12	1052.18	1048.22
x1 = 0.6262	1074.52	1070.55	1066.6	1062.64	1058.66	1054.73
x1 = 0.6838	1080.96	1076.95	1072.95	1068.91	1064.9	1060.87
x1 = 0.7544	1089.83	1085.77	1081.67	1077.58	1073.51	1069.44
x1 = 0.8295	1100.75	1096.63	1092.5	1088.36	1084.26	1080.16
x1 = 0.8818	1109.7	1105.53	1101.4	1097.27	1093.1	1088.94
x1 = 0.9392	1120.57	1116.44	1112.31	1108.16	1104.04	1099.88
x1 = 1	1133	1129	1125	1121	1117	1113

CCCO [propan-1-ol] + NC=O
x2 = 0
Conditions	mass density [kg/m3]
293.15 K	803.71
298.15 K	799.74
303.15 K	795.77
308.15 K	791.8
313.15 K	787.83
318.15 K	783.86
